In patent publication US9067930B2, “2-oxo-piperidinyl derivatives” (UCB Pharma, S.A., priority 2011, dated 2015):

Key:
[1] = system: dural protein extravasation induced by electrical stimulation of the trigeminal ganglion; experiment: Plasma protein extravasation (PPE) / dural extravasation model of migraine; format: in vivo; details: rat
Excerpt: 5-HT7 antagonists are expected to have efficacy in the prophylactic (and potentially acute) treatment of migraine by: • 1) Preventing serotonin-induced vasodilatation of cranial blood vessels (Matthys, A., et al., Role of the 5-HT7 receptor in the central nervous system: from current status to future perspectives. Molecular Neurobiology, 2011; Leopoldo, M., et al., Serotonin 5-HT7 receptor agents: Structure-activity relationships and potential therapeutic applications in central nervous system disorders. Pharmacology & Therapeutics, 2011, 129, 120-148; Hedlund, P. B., The 5-HT7 receptor and disorders of the nervous system: an overview. Psychopharmacology, 2009, 206, 345-354). Contrary to the triptans, 5-HT7 antagonists would only reverse a pre-existing vasodilatation, without producing vasoconstriction by themselves. This would make 5-HT7 antagonists, in contrast to triptans, compatible with chronic use and therefore with prophylactic treatment. • 2) By inhibiting peripheral and central sensitization. […] In this rat model of migraine, dural protein extravasation is induced by electrical stimulation of the trigeminal ganglion. […]
The level of fluorescence in dura maters ipsi- and contra-lateral to the trigeminal ganglia stimulation is quantified with a digital camera (Hamamatsu C4742-98 filter for FITC objective Nikon 2.8×) and analysis software (WIT5.3, Logical vision).

CGRP release = details: after electrical stimulation of the trigeminal ganglion; cited from earlier work

SMILES: CC1CCN(CC[C@H]2CCCN2S(=O)(=O)c2cccc(O)c2)CC1 [SB-269970]
- human coronary artery contraction (human coronary artery): does not induce human coronary artery contraction
- inhibition of neurogenic inflammation / reduction of protein extravasation [1]: Inhibition of neurogenic inflammation
- release of CGRP (CGRP release): inhibits the release of CGRP
